pEC50: −log10 of the molar value.
How the values were obtained:
[1] = Cmax in NCR nude mouse at 100 mg/kg, po; assay type: ADME, organism-based; parameters: dose 100 mg/kg, route oral; settings: in vivo
[2] = Half life in NCR nude mouse at 30 mg/kg, po; assay type: ADME, organism-based; parameters: dose 30 mg/kg, route oral; settings: in vivo
[3] = AUC (0 to infinity) in NCR nude mouse at 100 mg/kg, po; assay type: ADME, organism-based; parameters: time infinity, dose 100 mg/kg, route oral; settings: plasma
[4] = Half life in beagle dog at 2 mg/kg, po; assay type: ADME, organism-based, Canis lupus familiaris; parameters: dose 2 mg/kg, route oral; settings: in vivo
[5] = Tmax in cynomolgus monkey at 3 mg/kg, po; assay type: ADME, organism-based, Macaca fascicularis; parameters: dose 3 mg/kg, route oral; settings: in vivo
A-375 = assay: Antiproliferative activity against human A375 cells expressing B-Raf V600E mutant after 72 hrs by Cell-Titre Blue assay; assay type: functional, cell-based; settings: A-375, 72 h
[6] = Cmax in cynomolgus monkey at 3 mg/kg, po; assay type: ADME, organism-based, Macaca fascicularis; parameters: dose 3 mg/kg, route oral; settings: in vivo
[7] = AUC (0 to infinity) in beagle dog at 2 mg/kg, po; assay type: ADME, organism-based, Canis lupus familiaris; parameters: dose 2 mg/kg, route oral, time infinity; settings: plasma
[8] = Oral bioavailability in NCR nude mouse at 30 mg/kg; assay type: ADME, organism-based; settings: in vivo
[9] = Oral bioavailability in CD-1 mouse at 2 mg/kg; assay type: ADME, organism-based; settings: in vivo
[10] = Tmax in NCR nude mouse at 150 mg/kg, po; assay type: ADME, organism-based; parameters: dose 150 mg/kg, route oral; settings: in vivo
[11] = Oral bioavailability in NCR nude mouse at 150 mg/kg; assay type: ADME, organism-based; settings: in vivo
Mus musculus [12] = assay: In vivo inhibition of ERK2 in nude mouse xenografted with human HCT116 cells assessed as pRSK knockdown at 75 mg/kg, po qd after 8 hrs relative to vehicle-treated control; assay type: functional; settings: HCT-116, 8 h
[13] = Oral bioavailability in cynomolgus monkey at 3 mg/kg; assay type: ADME, organism-based, Macaca fascicularis; settings: in vivo
[14] = AUC (0 to infinity) in NCR nude mouse at 30 mg/kg, po; assay type: ADME, organism-based; parameters: time infinity, dose 30 mg/kg, route oral; settings: plasma
[15] = Clearance in Sprague-Dawley rat at 1 mg/kg, iv; assay type: ADME, organism-based; parameters: dose 1 mg/kg, route intravenous; settings: in vivo
[16] = Tmax in beagle dog at 2 mg/kg, po; assay type: ADME, organism-based, Canis lupus familiaris; parameters: dose 2 mg/kg, route oral; settings: in vivo
[17] = Cmax in NCR nude mouse at 150 mg/kg, po; assay type: ADME, organism-based; parameters: dose 150 mg/kg, route oral; settings: in vivo
Mus musculus [18] = assay: In vivo inhibition of ERK2 in nude mouse xenografted with human HCT116 cells assessed as pRSK knockdown at 75 mg/kg, po qd after 1 hr relative to vehicle-treated control; assay type: functional; settings: HCT-116, 1 h
[19] = Oral bioavailability in NCR nude mouse at 100 mg/kg; assay type: ADME, organism-based; settings: in vivo
[20] = Cmax in NCR nude mouse at 30 mg/kg, po; assay type: ADME, organism-based; parameters: dose 30 mg/kg, route oral; settings: in vivo
Mus musculus [21] = assay: Toxicity in nude mouse xenografted with human HCT116 cells assessed as body weight loss at 150 mg/kg, po bid relative to vehicle-treated control; assay type: organism-based, HCT-116; parameters: dose 150 mg/kg, route oral; settings: in vivo
[22] = Tmax in Sprague-Dawley rat at 5 mg/kg, po; assay type: ADME, organism-based; parameters: dose 5 mg/kg, route oral; settings: in vivo
[23] = Cmax in beagle dog at 2 mg/kg, po; assay type: ADME, organism-based, Canis lupus familiaris; parameters: dose 2 mg/kg, route oral; settings: in vivo
[24] = Clearance in beagle dog at 1 mg/kg, iv; assay type: ADME, organism-based, Canis lupus familiaris; parameters: dose 1 mg/kg, route intravenous; settings: in vivo
[25] = Toxicity in po dosed nude mouse xenografted with human HCT116 cells administered bid; assay type: organism-based, HCT-116; settings: in vivo
[26] = Tmax in NCR nude mouse at 30 mg/kg, po; assay type: ADME, organism-based; parameters: dose 30 mg/kg, route oral; settings: in vivo
[27] = Clearance in cynomolgus monkey at 1 mg/kg, iv; assay type: ADME, organism-based, Macaca fascicularis; parameters: dose 1 mg/kg, route intravenous; settings: in vivo
[28] = Half life in NCR nude mouse at 150 mg/kg, po; assay type: ADME, organism-based; parameters: dose 150 mg/kg, route oral; settings: in vivo
[29] = AUC (0 to infinity) in cynomolgus monkey at 3 mg/kg, po; assay type: ADME, organism-based, Macaca fascicularis; parameters: dose 3 mg/kg, route oral, time infinity; settings: plasma
Mus musculus [30] = assay: In vivo inhibition of ERK2 in nude mouse xenografted with human HCT116 cells assessed as pRSK knockdown at 150 mg/kg, po qd after 8 hrs relative to vehicle-treated control; assay type: functional; settings: HCT-116, 8 h
[31] = Tmax in NCR nude mouse at 100 mg/kg, po; assay type: ADME, organism-based; parameters: dose 100 mg/kg, route oral; settings: in vivo
[32] = Oral bioavailability in beagle dog at 2 mg/kg; assay type: ADME, organism-based, Canis lupus familiaris; settings: in vivo
[33] = AUC (0 to infinity) in NCR nude mouse at 150 mg/kg, po; assay type: ADME, organism-based; parameters: time infinity, dose 150 mg/kg, route oral; settings: plasma
[34] = AUC (0 to infinity) in Sprague-Dawley rat at 5 mg/kg, po; assay type: ADME, organism-based; parameters: time infinity, dose 5 mg/kg, route oral; settings: plasma
[35] = Clearance in CD-1 mouse at 0.5 mg/kg, iv; assay type: ADME, organism-based; parameters: dose 0.5 mg/kg, route intravenous; settings: in vivo
[36] = Half life in cynomolgus monkey at 3 mg/kg, po; assay type: ADME, organism-based, Macaca fascicularis; parameters: dose 3 mg/kg, route oral; settings: in vivo
[37] = Antiproliferative activity against human HCT116 cells expressing K-Ras […] mutant after 72 hrs by Cell-Titre Blue assay; assay type: functional, cell-based; settings: HCT-116, 72 h
[38] = Clearance in NCR nude mouse at 1 mg/kg, iv; assay type: ADME, organism-based; parameters: dose 1 mg/kg, route intravenous; settings: in vivo
[39] = Half life in NCR nude mouse at 100 mg/kg, po; assay type: ADME, organism-based; parameters: dose 100 mg/kg, route oral; settings: in vivo
[40] = Cmax in Sprague-Dawley rat at 5 mg/kg, po; assay type: ADME, organism-based; parameters: dose 5 mg/kg, route oral; settings: in vivo
[41] = Half life in Sprague-Dawley rat at 5 mg/kg, po; assay type: ADME, organism-based; parameters: dose 5 mg/kg, route oral; settings: in vivo
[42] = Oral bioavailability in Sprague-Dawley rat at 5 mg/kg; assay type: ADME, organism-based; settings: in vivo

Question: What does the source list for O=C(N[C@H](CO)c1ccc(Cl)c(F)c1)N1CCc2cnc(NC3CCOCC3)nc2C1?
Answer: Cmax [1]: 9820 nM; half-life [2]: 144 min; AUC(0-inf) [3]: 30 µM·h; half-life [4]: 36 min; Tmax [5]: 79.8 min; pEC50 (A-375): 6.41; Cmax [6]: 160 nM; AUC(0-inf) [7]: 0.61 µM·h; bioavailability [8]: 58%; bioavailability [9]: 29%; Tmax [10]: 15 min; bioavailability [11]: 64%; inhibition in vivo at 75 mg/kg (Mus musculus [12]): 20%; bioavailability [13]: 19%; AUC(0-inf) [14]: 4.81 µM·h; clearance [15]: 104 mL/min/kg; Tmax [16]: 25.2 min; Cmax [17]: 13900 nM; inhibition in vivo at 75 mg/kg (Mus musculus [18]): 75%; bioavailability [19]: 73%; Cmax [20]: 3120 nM; Activity (Mus musculus [21]): Non-toxic; Tmax [22]: 19.8 min; Cmax [23]: 590 nM; clearance [24]: 32 mL/min/kg; MTD [25]: 50 mg/kg; Tmax [26]: 30 min; clearance [27]: 33 mL/min/kg; half-life [28]: 162 min; AUC(0-inf) [29]: 0.65 µM·h; inhibition in vivo at 150 mg/kg (Mus musculus [30]): 55%; Tmax [31]: 15 min; bioavailability [32]: 26%; AUC(0-inf) [33]: 26.7 µM·h; AUC(0-inf) [34]: 0.2 µM·h; clearance [35]: 33 mL/min/kg; half-life [36]: 312 min; pEC50 [37]: 6.13; clearance [38]: 134 mL/min/kg; half-life [39]: 450 min; Cmax [40]: 90 nM; half-life [41]: 102 min; bioavailability [42]: 11%
